In BigSolDB 2.1:

c1nc[nH]n1
Conditions | solubility (mole fraction)
in ethanol, 283.18 K | 0.131
in ethanol, 288.25 K | 0.147
in ethanol, 293.21 K | 0.164
in ethanol, 298.18 K | 0.184
in ethanol, 303.15 K | 0.205
in ethanol, 308.14 K | 0.228
in ethanol, 313.21 K | 0.253
in ethanol, 318.23 K | 0.28
in ethanol, 323.22 K | 0.308
in ethanol, 328.27 K | 0.339
in ethanol, 333.28 K | 0.371
in ethyl acetate, 283.21 K | 0.0268
in ethyl acetate, 288.29 K | 0.032
in ethyl acetate, 293.21 K | 0.0365
in ethyl acetate, 298.19 K | 0.041
in ethyl acetate, 303.18 K | 0.0457
in ethyl acetate, 308.27 K | 0.0513
in ethyl acetate, 313.2 K | 0.0578
in ethyl acetate, 318.21 K | 0.066
in ethyl acetate, 323.16 K | 0.0759
in ethyl acetate, 328.17 K | 0.0884
in ethyl acetate, 333.27 K | 0.104
in ethyl formate, 283.21 K | 0.0208
in ethyl formate, 288.23 K | 0.0246
in ethyl formate, 293.29 K | 0.0286
in ethyl formate, 298.24 K | 0.0331
in ethyl formate, 303.26 K | 0.0384
in ethyl formate, 308.17 K | 0.0446
in ethyl formate, 313.24 K | 0.0524
in ethyl formate, 318.27 K | 0.0617
in ethyl formate, 323.31 K | 0.073
in isopropanol, 283.17 K | 0.129
in isopropanol, 288.21 K | 0.144
in isopropanol, 293.16 K | 0.159
in isopropanol, 298.23 K | 0.176
in isopropanol, 303.27 K | 0.193
in isopropanol, 308.19 K | 0.211
in isopropanol, 313.24 K | 0.232
in isopropanol, 318.22 K | 0.254
in isopropanol, 323.27 K | 0.278
in isopropanol, 328.2 K | 0.304
in isopropanol, 333.19 K | 0.332
in isopropanol, 338.18 K | 0.363
in isopropanol, 343.26 K | 0.397
in methyl acetate, 283.27 K | 0.0968
in methyl acetate, 288.21 K | 0.106
in methyl acetate, 293.19 K | 0.117
in methyl acetate, 298.21 K | 0.128
in methyl acetate, 303.2 K | 0.141
in methyl acetate, 308.29 K | 0.155
in methyl acetate, 313.18 K | 0.171
in methyl acetate, 318.16 K | 0.189
in methyl acetate, 323.24 K | 0.21
in n-butyl acetate, 283.2 K | 0.0141
in n-butyl acetate, 288.23 K | 0.0166
in n-butyl acetate, 293.26 K | 0.0202
in n-butyl acetate, 298.22 K | 0.024
in n-butyl acetate, 303.24 K | 0.0279
in n-butyl acetate, 308.17 K | 0.032
in n-butyl acetate, 313.28 K | 0.037
in n-butyl acetate, 318.21 K | 0.0428
in n-butyl acetate, 323.16 K | 0.0498
in n-butyl acetate, 328.24 K | 0.0586
in n-butyl acetate, 333.19 K | 0.0688
in n-butyl acetate, 338.18 K | 0.0809
in n-butyl acetate, 343.23 K | 0.0955
in n-butyl acetate, 348.18 K | 0.113
in n-butyl acetate, 353.19 K | 0.136
in n-butyl acetate, 358.18 K | 0.167
in n-butyl acetate, 363.26 K | 0.211
in n-propanol, 283.17 K | 0.12
in n-propanol, 288.18 K | 0.135
in n-propanol, 293.27 K | 0.15
in n-propanol, 298.19 K | 0.168
in n-propanol, 303.21 K | 0.187
in n-propanol, 308.23 K | 0.208
in n-propanol, 313.27 K | 0.231
in n-propanol, 318.2 K | 0.256
in n-propanol, 323.22 K | 0.283
in n-propanol, 328.28 K | 0.313
in n-propanol, 333.18 K | 0.344
in n-propanol, 338.23 K | 0.378
in n-propanol, 343.29 K | 0.415
in propylene glycol, 283.16 K | 0.174
in propylene glycol, 288.27 K | 0.212
in propylene glycol, 293.26 K | 0.249
in propylene glycol, 298.16 K | 0.284
in propylene glycol, 303.19 K | 0.319
in propylene glycol, 308.18 K | 0.353
in propylene glycol, 313.2 K | 0.386
in propylene glycol, 318.28 K | 0.419
in propylene glycol, 323.21 K | 0.451
in propylene glycol, 328.22 K | 0.483
in propylene glycol, 333.23 K | 0.514
in propylene glycol, 338.29 K | 0.545
in propylene glycol, 343.21 K | 0.574
in propylene glycol, 348.23 K | 0.604
in propylene glycol, 353.24 K | 0.633
